Data taken from the supplement of paper PMC10307832.

Assays:
Assay in all cases: relative viability (nuclei count vs DMSO), 5 days (fraction); higher = more cells survive
Alisertib + OSI-027 = compound: COc1cc(Nc2ncc3c(n2)-c2ccc(Cl)cc2C(c2c(F)cccc2OC)=NC3)ccc1C(=O)O [Alisertib] + COc1cccc2cc(-c3nc([C@H]4CC[C@H](C(=O)O)CC4)n4ncnc(N)c34)[nH]c12 [OSI-027] (partner 0.5 µM)
In short: (§1)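 Lung cancer cell lines in 1536-well plates were dosed by pin tool the day after seeding, either with one drug alone or with a fixed anchor-drug dose plus five library-drug doses (not always all listed) in √10 steps. After 5 days, cells were fixed and their nuclei stained in one step (final 0.05% Triton X-100, 1% formaldehyde, 1 ug/ml Hoechst), then counted on 4× images. Relative viability is the nuclei count in treated wells divided by that in vehicle wells. Values are medians of duplicate plates.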

Alisertib + Lapatinib = compound: COc1cc(Nc2ncc3c(n2)-c2ccc(Cl)cc2C(c2c(F)cccc2OC)=NC3)ccc1C(=O)O [Alisertib] + CS(=O)(=O)CCNCc1ccc(-c2ccc3ncnc(Nc4ccc(OCc5cccc(F)c5)c(Cl)c4)c3c2)o1 [Lapatinib] (partner 2 µM)
In short: as §1

Alisertib + Linsitinib = compound: COc1cc(Nc2ncc3c(n2)-c2ccc(Cl)cc2C(c2c(F)cccc2OC)=NC3)ccc1C(=O)O [Alisertib] + C[C@]1(O)C[C@@H](c2nc(-c3ccc4ccc(-c5ccccc5)nc4c3)c3c(N)nccn32)C1 [Linsitinib] (partner 1 µM)
In short: as §1

Alisertib + Alpelisib = compound: COc1cc(Nc2ncc3c(n2)-c2ccc(Cl)cc2C(c2c(F)cccc2OC)=NC3)ccc1C(=O)O [Alisertib] + Cc1nc(NC(=O)N2CCC[C@H]2C(N)=O)sc1-c1ccnc(C(C)(C)C(F)(F)F)c1 [Alpelisib] (partner 2 µM)
In short: as §1

Cell Line	relative viability (Alisertib + OSI-027; first compound 0.005 µM)	relative viability (Alisertib + OSI-027; first compound 0.01581 µM)	relative viability (Alisertib + OSI-027; first compound 0.05 µM)	relative viability (Alisertib + OSI-027; first compound 0.1581 µM)	relative viability (Alisertib + OSI-027; first compound 0.5 µM)	relative viability (Alisertib + Lapatinib; first compound 0.005 µM)	relative viability (Alisertib + Lapatinib; first compound 0.01581 µM)	relative viability (Alisertib + Lapatinib; first compound 0.05 µM)	relative viability (Alisertib + Lapatinib; first compound 0.1581 µM)	relative viability (Alisertib + Lapatinib; first compound 0.5 µM)	relative viability (Alisertib + Linsitinib; first compound 0.005 µM)	relative viability (Alisertib + Linsitinib; first compound 0.01581 µM)	relative viability (Alisertib + Linsitinib; first compound 0.05 µM)	relative viability (Alisertib + Linsitinib; first compound 0.1581 µM)	relative viability (Alisertib + Linsitinib; first compound 0.5 µM)	relative viability (Alisertib + Alpelisib; first compound 0.005 µM)	relative viability (Alisertib + Alpelisib; first compound 0.01581 µM)	relative viability (Alisertib + Alpelisib; first compound 0.05 µM)	relative viability (Alisertib + Alpelisib; first compound 0.1581 µM)	relative viability (Alisertib + Alpelisib; first compound 0.5 µM)
NCI-H1651	0.621	0.609	0.417	0.288	0.203	0.716	0.589	0.434	0.192	0.193	0.843	0.774	0.451	0.217	0.22	0.867	0.87	0.533	0.289	0.187
NCI-H1666	0.7	0.7	0.592	0.494	0.367	0.672	0.451	0.436	0.28	0.236	0.815	0.812	0.41	0.317	0.253	1.05	0.721	0.455	0.268	0.224
NCI-H1734	0.562	0.436	0.296	0.277	0.18	0.905	0.746	0.404	0.264	0.175	0.869	0.86	0.469	0.334	0.213	0.623	0.628	0.444	0.253	0.239
NCI-H1755	0.638	0.645	0.541	0.341	0.27	0.946	0.945	0.833	0.299	0.316	1	0.947	0.62	0.5	0.271	0.876	0.852	0.63	0.414	0.248
NCI-H1792	0.665	0.622	0.399	0.257	0.178	0.847	0.875	0.61	0.215	0.0684	0.546	0.372	0.177	0.076	0.0631	0.678	0.606	0.246	0.0918	0.0744
NCI-H1793	0.257	0.149	0.213	0.193	0.149	0.887	0.376	0.41	0.22	0.27	0.811	0.923	0.373	0.276	0.197	0.735	0.9	0.383	0.329	0.2
NCI-H1915	0.507	0.473	0.374	0.278	0.238	0.787	0.821	0.606	0.305	0.253	0.984	0.948	0.504	0.354	0.224	0.934	0.808	0.385	0.354	0.199
NCI-H1944	0.375	0.454	0.393	0.196	0.175	0.769	0.829	0.764	0.36	0.188	1.23	1.33	0.971	0.508	0.265	0.788	0.882	0.626	0.41	0.207
